Measured values published in paper PMC10489938, “Developing an Amide-Spacered Triterpenoid Rhodamine Hybrid of Nano-Molar Cytotoxicity Combined with Excellent Tumor Cell/Non-Tumor Cell Selectivity” (Molecules, 2023).
Read-outs that look alike come from different tables or passages of the source.

What was measured:
A375 (melanoma) = assay: SRB cytotoxicity assay, A375; type: cell-based, human; conditions: Homo sapiens, A-375, SRB assay, 72 h of treatment, cut-off 30 μM, read-out: Cytotoxicity (EC50) A375
Description: (§1) Sulforhodamine (SRB) assays were performed to evaluate the cytotoxicity of the compounds. First, the cytotoxicity of the different rhodamines was determined; the results of these assays are compiled in Table 1 and Table 2 and depicted in Figure 1.
(§2) Experimental equipment: as previously described biological assays were performed as previously reported employing cell lines obtained from the Department of Oncology [Martin-Luther-University Halle Wittenberg; they were bought from ATCC [2, 4, 7]]. Rhodamine 101 B, as well as asiatic acid, were obtained from local vendors and used as received.
(§3) For the SRB assay and staining experiments: as previously described.

[1] = test system: HT29 (colorectal carcinoma); assay: SRB cytotoxicity assay, HT29; type: cell-based, human; conditions: Homo sapiens, HT-29, SRB assay, 72 h of treatment, cut-off 30 μM, read-out: Cytotoxicity (EC50) HT29
Description: as §1, §2, §3

[2] = test system: MCF7 (breast adenocarcinoma); assay: SRB cytotoxicity assay, MCF7; type: cell-based, human; conditions: Homo sapiens, MCF7, SRB assay, 72 h of treatment, cut-off 30 μM, read-out: Cytotoxicity (EC50) MCF7
Description: as §1, §2, §3

[3] = test system: A2780 (ovarian carcinoma); assay: SRB cytotoxicity assay, A2780; type: cell-based, human; conditions: Homo sapiens, A2780, SRB assay, 72 h of treatment, cut-off 30 μM, read-out: Cytotoxicity (EC50) A2780
Description: as §1, §2, §3

[4] = test system: HeLa (cervical adenocarcinoma); assay: SRB cytotoxicity assay, HeLa; type: cell-based, human; conditions: Homo sapiens, HeLa, SRB assay, 72 h of treatment, cut-off 30 μM, read-out: Cytotoxicity (EC50) HeLa
Description: as §1, §2, §3

[5] = SRB cytotoxicity assay, NIH 3T3; type: cell-based, murine; conditions: mouse, NIH 3T3 non-malignant fibroblasts, cut-off 30 μM
Description: as §1, §2, §3

| SMILES | EC50 (A375 (melanoma); Table 2) | EC50 ([1]; Table 2) | EC50 ([2]; Table 2) | EC50 ([3]; Table 2) | EC50 ([4]; Table 2) | EC50 at 72 h ([5]; Table 2, 72 h of treatment) | EC50 ([1]; Table 1) | EC50 ([2]; Table 1) | EC50 ([3]; Table 1) | EC50 at 72 h ([5]; Table 1, 72 h of treatment) | EC50 (A375 (melanoma); Table 1) | EC50 ([4]; Table 1) |
| --- | --- | --- | --- | --- | --- | --- | --- | --- | --- | --- | --- | --- |
| CCN(CC)c1ccc2c(-c3ccccc3C(=O)N3CCCN(C(=O)[C@]45CC[C@@H](C)[C@H](C)[C@H]4C4=CC[C@@H]6[C@@]7(C)C[C@@H](OC(C)=O)[C@H](OC(C)=O)[C@@](C)(COC(C)=O)C7CC[C@@]6(C)[C@]4(C)CC5)CCC3)c3ccc(=[N+](CC)CC)cc-3oc2c1 (stereo partly drawn) [compound 17, (2α,3β,4α)-9-[2-[{4-(2α,3β,23-Tris(Acetyloxy)-urs-12-en-28-oyl)-1,5-Diazocan-1-Yl]Carbonyl}Phenyl]-3,6-Bis(Diethylamino)-Xanthylium Chloride] | 30 ± 10 nM | 30 ± 10 nM | 25 ± 20 nM | 7 ± 2 nM | 60 ± 10 nM | 450 ± 20 nM | – | – | – | – | – | – |
| CC(=O)OC[C@@]1(C)C2CC[C@]3(C)[C@H](CC=C4[C@@H]5[C@@H](C)[C@H](C)CC[C@]5(C(=O)N5CCCN(C(=O)c6ccccc6C6=c7cc8c9c(c7Oc7c6cc6c%10c7CCCN%10CCC6)CCC[N+]=9CCC8)CC5)CC[C@]43C)[C@@]2(C)C[C@@H](OC(C)=O)[C@@H]1OC(C)=O (stereo partly drawn) [compound 15] | 8 ± 1 nM | 10 ± 6 nM | 19 ± 6 nM | 3.1 ± 0.5 nM | 80 ± 30 nM | 140 ± 50 nM | – | – | – | – | – | – |
| CCN(CC)c1ccc2c(-c3ccccc3C(=O)N3CCN(C(=O)[C@]45CC[C@@H](C)[C@H](C)[C@H]4C4=CC[C@@H]6[C@@]7(C)C[C@@H](OC(C)=O)[C@H](OC(C)=O)[C@@](C)(COC(C)=O)C7CC[C@@]6(C)[C@]4(C)CC5)CC3)c3ccc(=[N+](CC)CC)cc-3oc2c1 (stereo partly drawn) [compound 7] | 27 ± 9 nM | 26 ± 9 nM | 34 ± 9 nM | 5.6 ± 0.6 nM | 200 ± 100 nM | 330 ± 80 nM | – | – | – | – | – | – |
| CC(=O)OC[C@@]1(C)C2CC[C@]3(C)[C@H](CC=C4[C@@H]5[C@@H](C)[C@H](C)CC[C@]5(C(=O)N5CCN(C(=O)c6ccccc6-c6c7ccc(=[N+](C)C)cc-7oc7cc(N(C)C)ccc67)CC5)CC[C@]43C)[C@@]2(C)C[C@@H](OC(C)=O)[C@@H]1OC(C)=O (stereo partly drawn) [compound 6, (2α,3β,4α)-9-[2-{[4-(2,3,23-Tris(acetyloxy)-urs-12-en-28-oyl)-Piperazinyl]Carbonyl}Phenyl]-3,6-bis(Dimethylamino)-Xanthylium Chloride] | 150 ± 8 nM | 230 ± 80 nM | 150 ± 30 nM | 43 ± 8 nM | 700 ± 200 nM | 550 ± 60 nM | – | – | – | – | – | – |
| CCCN(CCC)c1ccc2c(-c3ccccc3C(=O)N3CCCN(C(=O)[C@]45CC[C@@H](C)[C@H](C)[C@H]4C4=CC[C@@H]6[C@@]7(C)C[C@@H](OC(C)=O)[C@H](OC(C)=O)[C@@](C)(COC(C)=O)C7CC[C@@]6(C)[C@]4(C)CC5)CC3)c3ccc(=[N+](CCC)CCC)cc-3oc2c1 (stereo partly drawn) [compound 13, (2α,3β,4α)-9-[2-{[4-(2α,3β,23-Tris(Acetyloxy)-urs-12-en-28-oyl)-Homopiperazinyl]Carbonyl}Phenyl]-3,6-Bis(Dipropylamino)-Xanthylium Chloride] | 3.9 ± 0.6 nM | 6 ± 1 nM | 10 ± 1 nM | 1.1 ± 0.1 nM | 41 ± 9 nM | 100 ± 50 nM | – | – | – | – | – | – |
| CC(=O)OC[C@@]1(C)C2CC[C@]3(C)[C@H](CC=C4[C@@H]5[C@@H](C)[C@H](C)CC[C@]5(C(=O)N5CCCN(C(=O)c6ccccc6-c6c7ccc(=[N+](C)C)cc-7oc7cc(N(C)C)ccc67)CC5)CC[C@]43C)[C@@]2(C)C[C@@H](OC(C)=O)[C@@H]1OC(C)=O (stereo partly drawn) [compound 11, (2α,3β,4α)-9-[2-{[4-(2α,3β,23-Tris(Acetyloxy)-urs-12-en-28-oyl)-Homopiperazinyl]Carbonyl}Phenyl]-3,6-Bis(Dimethylamino)-Xanthylium Chloride] | 39 ± 3 nM | 20 ± 10 nM | 28 ± 5 nM | 3.2 ± 0.4 nM | 400 ± 100 nM | 300 ± 100 nM | – | – | – | – | – | – |
| COc1cccc2c1C(=O)c1c(O)c3c(c(O)c1C2=O)C[C@@](O)(C(=O)CO)C[C@@H]3O[C@H]1C[C@H](N)[C@H](O)[C@H](C)O1 [DX, doxorubicin, reference compound] | – | – | – | – | – | – | 900 ± 200 nM | 1100 ± 300 nM | 20 ± 10 nM | 11900 ± 1300 nM | – | – |
| CCCN(CCC)c1ccc2c(-c3ccccc3C(=O)N3CCN(C(=O)[C@]45CC[C@@H](C)[C@H](C)[C@H]4C4=CC[C@@H]6[C@@]7(C)C[C@@H](OC(C)=O)[C@H](OC(C)=O)[C@@](C)(COC(C)=O)C7CC[C@@]6(C)[C@]4(C)CC5)CC3)c3ccc(=[N+](CCC)CCC)cc-3oc2c1 (stereo partly drawn) [compound 8, (2α,3β,4α)-9-[2-{[4-(2,3,23-Tris(Acetyloxy)-urs-12-en-28-oyl)-Piperazinyl]Carbonyl}Phenyl]-3,6-Bis(Dipropylamino)-Xanthylium Chloride] | 32 ± 3 nM | 31 ± 7 nM | 34 ± 5 nM | 5.5 ± 0.5 nM | 160 ± 50 nM | 440 ± 90 nM | – | – | – | – | – | – |
| CCN(CC)c1ccc2c(-c3ccccc3C(=O)N3CCCN(C(=O)[C@]45CC[C@@H](C)[C@H](C)[C@H]4C4=CC[C@@H]6[C@@]7(C)C[C@@H](OC(C)=O)[C@H](OC(C)=O)[C@@](C)(COC(C)=O)C7CC[C@@]6(C)[C@]4(C)CC5)CC3)c3ccc(=[N+](CC)CC)cc-3oc2c1 (stereo partly drawn) [compound 12, (2α,3β,4α)-9-[2-{[4-(2α,3β,23-Tris(Acetyloxy)-urs-12-en-28-oyl)-Homopiperazinyl]Carbonyl}Phenyl]-3,6-Bis(Diethylamino)-Xanthylium Chloride] | – | 5.5 ± 2.3 nM | 7.1 ± 2.1 nM | 0.8 ± 0.1 nM | 17.7 ± 4.9 nM | 65 ± 26.2 nM | – | – | – | – | – | – |
| CCCN(CCC)c1ccc2c(-c3ccccc3C(=O)O)c3ccc(=[N+](CCC)CCC)cc-3oc2c1 [Rh3, reference compound] | – | – | – | – | – | – | 9300 ± 400 nM | 6400 ± 400 nM | 6700 ± 700 nM | 12000 ± 700 nM | 8200 ± 200 nM | 8000 ± 700 nM |
| CCCN(CCC)c1ccc2c(-c3ccccc3C(=O)N3CCCN(C(=O)[C@]45CC[C@@H](C)[C@H](C)[C@H]4C4=CC[C@@H]6[C@@]7(C)C[C@@H](OC(C)=O)[C@H](OC(C)=O)[C@@](C)(COC(C)=O)C7CC[C@@]6(C)[C@]4(C)CC5)CCC3)c3ccc(=[N+](CCC)CCC)cc-3oc2c1 (stereo partly drawn) [compound 18, (2α,3β,4α)-9-[2-[{4-(2α,3β,23-Tris(Acetyloxy)-urs-12-en-28-oyl)-1,5-Diazocan-1-Yl]Carbonyl}Phenyl]-3,6-Bis(Dipropylamino)-Xanthylium Chloride] | 7.4 ± 0.9 nM | 12 ± 4 nM | 17 ± 2 nM | 1.9 ± 0.2 nM | 70 ± 20 nM | 360 ± 50 nM | – | – | – | – | – | – |
| CCCCN(CCCC)c1ccc2c(-c3ccccc3C(=O)N3CCN(C(=O)[C@]45CC[C@@H](C)[C@H](C)[C@H]4C4=CC[C@@H]6[C@@]7(C)C[C@@H](OC(C)=O)[C@H](OC(C)=O)[C@@](C)(COC(C)=O)C7CC[C@@]6(C)[C@]4(C)CC5)CC3)c3ccc(=[N+](CCCC)CCCC)cc-3oc2c1 (stereo partly drawn) [compound 9, (2α,3β,4α)-9-[2-{[4-(2,3,23-Tris(Acetyloxy)-urs-12-en-28-oyl)-Piperazinyl]Carbonyl}Phenyl]-3,6-Bis(Dibutylamino)-Xanthylium Chloride] | 16 ± 3 nM | 26 ± 8 nM | 50 ± 10 nM | 4.9 ± 0.7 nM | 210 ± 50 nM | 400 ± 100 nM | – | – | – | – | – | – |
